{
  "source": "BindingDB's records for doi:10.1016/j.bioorg.2015.03.004",
  "about": "(Suez Canal University, 2015)",
  "target": "Vascular endothelial growth factor receptor 2 (Homo sapiens, UniProt P35968)",
  "sequence (P35968 whole entry)": "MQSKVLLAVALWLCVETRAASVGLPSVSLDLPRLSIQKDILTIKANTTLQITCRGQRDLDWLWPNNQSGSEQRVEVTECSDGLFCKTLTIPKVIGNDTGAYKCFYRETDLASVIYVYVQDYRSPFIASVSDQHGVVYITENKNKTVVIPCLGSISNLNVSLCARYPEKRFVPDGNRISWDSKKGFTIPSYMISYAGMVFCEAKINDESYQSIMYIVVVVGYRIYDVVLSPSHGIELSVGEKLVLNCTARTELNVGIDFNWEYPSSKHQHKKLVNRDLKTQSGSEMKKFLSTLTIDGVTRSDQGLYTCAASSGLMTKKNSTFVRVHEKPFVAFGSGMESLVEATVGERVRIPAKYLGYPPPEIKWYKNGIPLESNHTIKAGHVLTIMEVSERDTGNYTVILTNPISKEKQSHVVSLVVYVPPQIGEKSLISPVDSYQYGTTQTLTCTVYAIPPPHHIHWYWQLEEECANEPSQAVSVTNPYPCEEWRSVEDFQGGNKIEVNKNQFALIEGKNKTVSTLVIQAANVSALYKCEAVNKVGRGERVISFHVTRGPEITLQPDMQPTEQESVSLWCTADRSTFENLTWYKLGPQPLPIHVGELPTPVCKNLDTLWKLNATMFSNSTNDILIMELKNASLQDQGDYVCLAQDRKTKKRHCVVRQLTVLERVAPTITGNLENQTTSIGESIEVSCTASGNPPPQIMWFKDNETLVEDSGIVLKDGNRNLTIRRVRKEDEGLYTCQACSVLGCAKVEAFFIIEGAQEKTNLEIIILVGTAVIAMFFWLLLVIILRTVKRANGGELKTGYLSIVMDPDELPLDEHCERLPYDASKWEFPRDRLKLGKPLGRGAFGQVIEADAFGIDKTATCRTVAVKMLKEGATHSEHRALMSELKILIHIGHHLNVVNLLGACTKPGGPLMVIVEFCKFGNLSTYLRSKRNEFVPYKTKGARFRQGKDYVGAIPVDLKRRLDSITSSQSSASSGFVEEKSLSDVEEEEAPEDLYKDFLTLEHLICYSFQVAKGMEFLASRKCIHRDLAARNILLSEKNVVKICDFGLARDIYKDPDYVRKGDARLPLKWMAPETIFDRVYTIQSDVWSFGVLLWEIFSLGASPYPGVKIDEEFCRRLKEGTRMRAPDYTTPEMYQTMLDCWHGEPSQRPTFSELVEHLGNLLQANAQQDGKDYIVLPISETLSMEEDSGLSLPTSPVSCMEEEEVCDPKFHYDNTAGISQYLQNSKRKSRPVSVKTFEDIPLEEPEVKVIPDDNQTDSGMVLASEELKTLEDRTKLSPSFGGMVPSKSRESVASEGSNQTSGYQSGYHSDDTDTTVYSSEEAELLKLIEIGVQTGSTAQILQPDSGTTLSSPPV",
  "experiment": "ADP-GloTM Assay",
  "method": "The protein kinase assays used to determine IC50 value were performed using ADP-GloTM assay kit. The assay was started by incubating the reaction mixture in a 96-well plate at 30 °C for 30 min. After the 30 min incubation period, the assay was terminated by the addition of […] of ADPGloTM Reagent. The 96-well plate was shaken and then incubated for 40 min at ambient temperature, […] of kinase detection reagent was added, the 96-well reaction plate was then read using ADP-GloTM luminescences protocol on GloMaxTM plate reader. Blank control waqs set up that included all the assay components except the addition of appropriate substrate (replace with equal volume of kinase assay buffer).",
  "data": [
    {"smiles": "Cc1cc(C)c2c(Nc3ncnc4c3sc3nc(C)cc(C)c34)csc2n1", "note": "[N-(4,6-dimethylthieno[2,3-b]pyridine)-7,9-dimethylpyrido[30,20:4,5]thieno[3,2-d]pyrimidin-4-amine (9d)]", "values": [
      {"measurement": "IC50", "value": 2600, "unit": "nM"}
    ]}
  ]
}
